The source of these data is patent US20260137809A1, “GENE THERAPY VECTORS FOR TREATMENT OF CANCER” (Siren Biotechnology, Inc., priority 2022, published 2026).

One assay concerns X^on splicing element. Put plainly: Inducible AAV-GFP / AAV-eGFP expression after the inducer branaplam, live fluorescent imaging (Example 2). In kind it is cell-based, human. Conditions: HEK293-T cells transduced with AAV-CAG-X^on-eGFP, branaplam 125 nM. The source says: Adherent human HEK293-T cells were transduced with inducible AAV-GFP, followed by fluorescent imaging for GFP expression pre- and post-administration of an inducer molecule (e.g., branaplam). The data is seen in FIG. 17.
Adherent human HEK293-T cells were transduced with AAV-GFP at varying dosages, followed by administration of an inducer molecule (e.g., branaplam), and monitored for GFP expression over several hours to determine initial expression kinetics at different AAV dosages in vitro. The data is seen in FIG. 19.
In a similar set of experiments, HEK293-T cells were plated in a 96-well plate for 24 hours and transduced with a broad range of multiplicity of infection (MOI) using a constitutively-expressing payload expression construct, AAV-CAG-eGFP, to determine the necessary MOI for detectable eGFP expression prior to advancing to the inducible constructs described in Example 1. MOIs tested ranged from 3E4 to 4E6 vg/cell. Transduction efficacy was assessed by measuring the eGFP payload expression from transduced cells using a fluorescent microscopy imager (FIG. 18). Once an MOI was selected, the inducible AAV-CAG-X^on-eGFP was tested with an inducer molecule, branaplam at 125 nM, 24 hours post-transduction. […] Control cells were transduced with AAV-CAG-X^on-eGFP without the addition of an inducer. […]

Assay [1] concerns X^on splicing control element. Put plainly: Kinetics of eGFP induction with branaplam and RG7800-HCl, live cell imaging (Example 4). In kind it is cell-based. As to conditions: for induced eGFP expression level compared with the constitutive construct: AAV-CAG-X^on-eGFP versus constitutive AAV-CAG-eGFP, inducer at optimal concentrations; for course of eGFP payload expression after induction: AAV-CAG-X^on-eGFP, monitored for 14, 28 or 84 hours. As to the method: Cells were seeded in 96-well plates for 24 hours and transduced with AAV-CAG-X^on-eGFP or constitutive AAV-CAG-eGFP as the positive control, and treated with or without branaplam or RG7800-HCl. Fluorescent eGFP payload expression was monitored for a total of 14 hours (FIGS. 21A-21D) or 28 hours (FIGS. 22A-22D) by live cell imaging.

Assay [2] has as its system X^on splicing control element. Put plainly: ON/OFF control of fLuc expression with cycles of branaplam (Example 6). In kind it is cell-based, human. As to conditions: HEK293-T, AAV-CAG-X^on-fLuc, MOI 2.5E5 vg/cell. As to the method: HEK293-T cells were transduced with AAV and then branaplam, and after 24 hours of induction with branaplam, supernatants were harvested and assayed for luciferase expression, and the media was replaced with fresh medium without branaplam. Supernatants for the next timepoint were then harvested after 24 hours in the condition without branaplam, and the cycle was repeated (e.g., one or two or more times; FIG. 25A). Briefly, HEK293-T cells were transduced with an MOI of 2.5E5 vg/cell of AAV-CAG-X^on-fLuc (FIG. 25B) for 24 hours, followed by addition of branaplam at 3 different concentrations at hour 24 for an additional 24 hours (“ON”). Supernatants were then harvested for the measurement of fLuc, and media was replaced with fresh media lacking branaplam (“OFF”) for 24 hours. Supernatants were harvested after 24 hours in the OFF state. fLuc luminescent signal was measured for each cycle in sample supernatants at each time point and condition described (FIG. 25C).

Assay [3] has as its system X^on splicing control element. The assay is described as follows: ON/OFF control of hIFNβ expression with branaplam, ELISA of supernatants (Example 7). As to conditions: HEK293-T, AAV-CAG-X^on-hIFNβ, MOI 2.5e^5 vg/cell. The class given is cell-based, human. As to the method: Briefly, HEK293-T cells were transduced with an MOI of 2.5e^5 vg/cell of AAV-CAG-X^on-hIFNβ or constitutive AAV-CAG-hIFNβ for 24 hours. 24 hours post-transduction with AAV, branaplam was added to the cell media to induce human IFNβ (hIFNβ) expression (“ON”). After 24 hours, media supernatants were harvested for payload measurement and fresh media lacking Branaplam (“OFF”). 24 hours later, media supernatants were harvested for payload detection (FIG. 25A). Amounts of hIFNβ were measured in picograms per milliliter (pg/mL) (FIG. 26A) using an ELISA kit for hIFNβ in supernatants before and after induction with branaplam, and after removal of branaplam. FIG. 26B depicts the expression of hIFNβ following transduction with AAV-CAG-X^on-hIFNβ normalized to the levels of expression obtained with the constitutive payload.

The test system of another assay is X^on induction system. Put plainly: Dose studies with various inducer molecules, AAV-CAG-X^on-eGFP fluorescence (Example 3). The class given is cell-based. As to conditions: cells transduced with 1e^6 vg/cell AAV-CAG-X^on-eGFP; inducer added after 24 hours at 4 concentrations. As to the method:
Briefly, cells were seeded in black 96-well plates for 24 hours and transduced with 1e^6 vg/cell AAV-CAG-X^on-eGFP as described in Example 1. After 24 hours, each inducer was added directly into the cell media at 4 different concentrations each. Cells expressing the eGFP payload were visualized by fluorescent live imaging (20× magnification) after induction with branaplam (FIG. 20A) or RG7800 (FIG. 20B). Cells were counter-stained with […] Hoechst to identify nuclei and determine total cell counts for normalization. The number of eGFP-positive cells as well as the green fluorescence intensity was measured for each well and each condition up to 9 hours post-induction to determine the kinetics of the payload expression post-induction (FIGS. 20C-20H).

With `CC1(C)CC(Oc2ccc(-c3ccc(-c4cn[nH]c4)cc3O)nn2)CC(C)(C)N1` [branaplam], the “detectable GFP and eGFP expression, earliest time post-induction” value in the assay on X^on splicing element (24 hours post-transduction, imaging every 30 minutes) amounted to 3 h. Also, in the assay on X^on splicing element (read up to 5 hours), the “course of GFP and eGFP signal post-induction” value was “continuing to increase up to 5 hours post-induction”. For the same compound, in assay [1], the “induced eGFP expression level compared with the constitutive construct” value was “nearly the same levels of expression” and the “course of eGFP payload expression after induction” value is on record as “continued to increase over the first 12 hours, followed by a slower increase to 24 hours”. Besides, in assay [2], the “fLuc expression in OFF conditions (without branaplam for 24 hours)” value is recorded as “reliably reduced expression of the fLuc”; the “re-induction of fLuc expression achievable and detectable, number of cycles” value is “at least 2 full induction cycles”. Further, in assay [2] (3 concentrations, 24 hours ON / 24 hours OFF), the “dose of branaplam needed to mediate reliable payload expression and cycle control” value is no less than 200 nM. Also, the “number of repeat ON/OFF cycles on the same transduced cells” value in assay [3] is “up to 2 repeat cycles”. Besides, in assay [3] (ELISA of supernatant), the “time to induced expression of hIFNβ after induction” value is no more than 24 h and the “time until hIFNβ expression stopped after removal of branaplam” value was no more than 24 h.
As to `CCc1nc(C)cn2nc(-c3cc(=O)n4cc(C5CCN(C)CC5)cc(C)c4n3)cc12.Cl` [RG7800-HCl], the “active concentration for induction of eGFP payload expression” value in the assay with X^on induction system is 20 µM. In assay [1], the “induced eGFP expression level compared with the constitutive construct” value is given as “nearly the same levels of expression” and the “course of eGFP payload expression after induction” value is recorded as “continued to increase over the first 12 hours, followed by a slower increase to 24 hours”.
With `CCc1nc(C)cn2nc(-c3cc(=O)n4cc(C5CCN(C)CC5)cc(C)c4n3)cc12` [RG7800], the “active concentration for induction of eGFP payload expression” value in the assay with X^on induction system came out at 20 µM.
